Measured values from patent US9895346B2, “Applications of substituent benzyloxy group containing ether compounds for preparing antitumor drugs” (Sinochem Corporation, priority 2013, dated 2018).

Experiments:
colon cancer HCT116 = experiment: In vitro cell inhibition assay, colon cancer HCT116; assay type: cell-based, human
From the text: (§1) In vitro Cell inhibition assay is as follows:
(§2) The human cancer cell lines used for this assay were bladder cancer J82, T24, prostate cancer LNCap, PC-3, lung cancer A549, H157, H460, H520, colon cancer HCT8, HCT116, RkO, and leukemia HL-60, etc.

[1] = test system: human leukemia HL-60 cells; experiment: Proliferation inhibition of human leukemia HL-60 cells, MTT method; assay type: cell-based; conditions: 48 h incubation, OPTI-MEM medium
Summary of the method: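 Cells at 5×10^4 cells/mL cultured overnight at 37 °C, 5% CO2, then exposed to compounds at different concentrations for 48 h. MTT added for 4 h, formazan dissolved in DMSO and absorbance read at 570 nm to give inhibition rate.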

[2] = test system: lung cancer cell line H157; experiment: In vitro cell inhibition assay (crystal violet), lung cancer H157; assay type: cell-based, human
From the text: as §1, §2
(§3) In vitro cell culture technology was selected for the determination of inhibition rate bladder cancer cell lines J82 and T24, prostate cancer cell lines LNCap and PC-3, lung cancer cell lines A549, H157, H460 and H520. 1000 to 3000 cells were inoculated to 24-well plate, followed by addition of 1 mL culture medium well known to researchers in this field to each well, the cells were cultured in 5% incubator for 24 hours at 37° C., then the different concentration compounds and controls were added to each well. It should be noted that the added volume is not more than 0.5% of total volume. After completion of addition, the cells continued being cultured in incubator for one week, the culture medium was removed and washed by cold PBS of 1 mL once, and then fixed for 10 minutes at room temperature with 1% formalin, followed by wash with PBS of 1 mL. After fixation, stain was carried out with 0.1% crystal violet for 30 minutes. 0.1% crystal violet was recycled. The stained cells were washed gently with deionized water, dried at room temperature and kepted. The inhibition rate was calculated according to the foiling equation. The controls are Selumetinib (AZD6244), Gefitinib, Cisplatin. Inhibition rate=number of left cells each treatment/number of left cells of untreated control×100%

[3] = test system: lung cancer cell line H460; experiment: In vitro cell inhibition assay (crystal violet), lung cancer H460; assay type: cell-based, human
Summary of the method: (§4)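 1000-3000 cells per well grown 24 h at 37 °C, then exposed to compound for one week (vehicle ≤0.5% of volume). Cells formalin-fixed and stained with 0.1% crystal violet. Inhibition rate = remaining cells in treated wells / remaining cells in untreated control × 100%.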

[4] = test system: bladder cancer cell line T24; experiment: In vitro cell inhibition assay (crystal violet), bladder cancer T24; assay type: cell-based, human
From the text: as §1, §2, §3

colon cancer RkO = experiment: In vitro cell inhibition assay, colon cancer RkO; assay type: cell-based, human
From the text: as §1, §2

[5] = test system: lung cancer cell line A549; experiment: In vitro cell inhibition assay (crystal violet), lung cancer A549; assay type: cell-based, human
Summary of the method: as §4

[6] = test system: prostate cancer cell line LNCap; experiment: In vitro cell inhibition assay (crystal violet), prostate cancer LNCap; assay type: cell-based, human
From the text: as §1, §2, §3

[7] = test system: bladder cancer cell line J82; experiment: In vitro cell inhibition assay (crystal violet), bladder cancer J82; assay type: cell-based, human
From the text: as §1, §2, §3

colon cancer HCT8 = experiment: In vitro cell inhibition assay, colon cancer HCT8; assay type: cell-based, human
From the text: as §1, §2

[8] = test system: prostate cancer cell line PC-3; experiment: In vitro cell inhibition assay (crystal violet), prostate cancer PC-3; assay type: cell-based, human
From the text: as §1, §2, §3

[9] = test system: lung cancer cell line H520; experiment: In vitro cell inhibition assay (crystal violet), lung cancer H520; assay type: cell-based, human
Summary of the method: as §4

CCCCc1c(C)c2ccc(OCc3ccccc3/C(=C\OC)C(=O)OC)cc2oc1=O [Compound 28-72, coumoxystrobin]
Inhibition rate on human cancer cells (colon cancer HCT116; HCT 116, 0.25 μM): 80% | Inhibition rate on human cancer cells (colon cancer HCT116; HCT 116, 0.5 μM): 95% | Inhibition rate on human cancer cells (colon cancer HCT116; HCT 116, 1.0 μM): 99% | Inhibition rate on human cancer cells (colon cancer HCT116; HCT 116, 2.5 μM): 100% | Inhibition rate on human cancer cells (colon cancer HCT116; HCT 116, 5.0 μM): 100% | Proliferation inhibitory effect on human leukemia HL-60 cell (%) ([1]; concentration 1 μM): 45.3% | Proliferation inhibitory effect on human leukemia HL-60 cell (%) ([1]; concentration 10 μM): 47.9% | Proliferation inhibitory effect on human leukemia HL-60 cell (%) ([1]; concentration 100 μM): 54.4% | Inhibition rate on human cancer cells ([2]; H157, 0.25 μM): >90% | Inhibition rate on human cancer cells ([2]; H157, 0.5 μM): 100% | Inhibition rate on human cancer cells ([2]; H157, 1.0 μM): 100% | Inhibition rate on human cancer cells ([2]; H157, 2.5 μM): 100% | Inhibition rate on human cancer cells ([2]; H157, 5.0 μM): 100% | Inhibition rate on human cancer cells ([3]; H460, 0.25 μM): 95% | Inhibition rate on human cancer cells ([3]; H460, 0.5 μM): 100% | Inhibition rate on human cancer cells ([3]; H460, 1.0 μM): 100% | Inhibition rate on human cancer cells ([3]; H460, 2.5 μM): 100% | Inhibition rate on human cancer cells ([3]; H460, 5.0 μM): 100% | Inhibition rate on human cancer cells ([4]; T24, 0.25 μM): 100% | Inhibition rate on human cancer cells ([4]; T24, 0.5 μM): 100% | Inhibition rate on human cancer cells ([4]; T24, 1.0 μM): 100% | Inhibition rate on human cancer cells ([4]; T24, 2.5 μM): 100% | Inhibition rate on human cancer cells ([4]; T24, 5.0 μM): 100% | Inhibition rate on human cancer cells (colon cancer RkO; 0.25 μM): 95% | Inhibition rate on human cancer cells (colon cancer RkO; 0.5 μM): 100% | Inhibition rate on human cancer cells (colon cancer RkO; 1.0 μM): 100% | Inhibition rate on human cancer cells (colon cancer RkO; 2.5 μM): 100% | Inhibition rate on human cancer cells (colon cancer RkO; 5.0 μM): 100% | Inhibition rate on human cancer cells ([5]; A549, 0.5 μM): 90% | Inhibition rate on human cancer cells ([5]; A549, 1.0 μM): 95% | Inhibition rate on human cancer cells ([5]; A549, 2.5 μM): 100% | Inhibition rate on human cancer cells ([5]; A549, 5.0 μM): 100% | Inhibition rate on human cancer cells ([6]; 0.25 μM): 100% | Inhibition rate on human cancer cells ([6]; 0.5 μM): 100% | Inhibition rate on human cancer cells ([6]; 1.0 μM): 100% | Inhibition rate on human cancer cells ([6]; 2.5 μM): 100% | Inhibition rate on human cancer cells ([6]; 5.0 μM): 100% | Inhibition rate on human cancer cells ([7]; J82, 0.25 μM): 70% | Inhibition rate on human cancer cells ([7]; J82, 0.5 μM): 90% | Inhibition rate on human cancer cells ([7]; J82, 1.0 μM): 95% | Inhibition rate on human cancer cells ([7]; J82, 2.5 μM): 100% | Inhibition rate on human cancer cells ([7]; J82, 5.0 μM): 100% | Inhibition rate on human cancer cells (colon cancer HCT8; HCT 8, 0.5 μM): 95% | Inhibition rate on human cancer cells (colon cancer HCT8; HCT 8, 1.0 μM): 100% | Inhibition rate on human cancer cells (colon cancer HCT8; HCT 8, 2.5 μM): 100% | Inhibition rate on human cancer cells (colon cancer HCT8; HCT 8, 5.0 μM): 100% | Inhibition rate on human cancer cells ([8]; PC-3, 0.25 μM): 100% | Inhibition rate on human cancer cells ([8]; PC-3, 0.5 μM): 100% | Inhibition rate on human cancer cells ([8]; PC-3, 1.0 μM): 100% | Inhibition rate on human cancer cells ([8]; PC-3, 2.5 μM): 100% | Inhibition rate on human cancer cells ([8]; PC-3, 5.0 μM): 100% | Inhibition rate on human cancer cells ([9]; H520, 0.25 μM): >90% | Inhibition rate on human cancer cells ([9]; H520, 0.5 μM): 100% | Inhibition rate on human cancer cells ([9]; H520, 1.0 μM): 100% | Inhibition rate on human cancer cells ([9]; H520, 2.5 μM): 100% | Inhibition rate on human cancer cells ([9]; H520, 5.0 μM): 100%
